We go through 13 molecules from article PMC5420810 (Annals of Clinical and Translational Neurology, 2017).

The test system of data set [1] is Scn1a +/− mice. The data set can be described thus: Hyperthermia‐induced seizures. It counts as in vivo, mouse. The settings on record: for Effect on hyperthermia‐induced seizure response: single‐point ip doses targeting human therapeutic range (Table 1).
Data set [2] concerns Scn1a +/− mice. The data set can be described thus: Survival analysis. The settings on record: for Mice surviving through P30: naïve mice, chow treatment from P18, untreated 67% (14/21). It counts as in vivo, mouse.
For another data set, the system named is Dravet syndrome patients. The data set can be described thus: Retrospective chart review of anticonvulsant responses in Dravet syndrome. The data set is classed as in vivo, human. The settings on record: for Patients with effective response with tolerable side effects / Effectiveness in Dravet syndrome cohort: patient or parent‐reported.
Data set [3] can be described thus: Pharmacokinetic analysis of clobazam and stiripentol after a single ip injection. The data set is classed as in vivo, Wild‐type and Scn1a +/− mice.
Data set [4] relates to Scn1a +/− mice. Description: Spontaneous seizure. It counts as in vivo, mouse. The settings on record: for Effect on spontaneous GTCS frequency: subchronic treatment in chow, naïve mice, 60 h recording.
For data set [5], the system named is Scn1a +/− mice. Description: Spontaneous GTCS following hyperthermic seizure priming. The data set is classed as in vivo, mouse. The settings on record: hyperthermia‐primed, clobazam 160 mg/kg chow, 60 h P19–P21 (4/16); untreated 61%.
The nature of data set [6]: Plasma drug concentration after subchronic oral treatment in chow. The settings on record: for Subchronic treatment plasma concentration: mg/kg chow: carbamazepine 7500, clobazam 160 (NCLB = metabolite after clobazam), lamotrigine 125, levetiracetam 1350, phenobarbital 300, stiripentol 4000, topiramate 850, valproic acid 4500, mean ± SEM, n = 5–8.
[7] abbreviates: single ip 10 mg/kg clobazam, analyte = labelled substance.

With `NC(=O)N1c2ccccc2C=Cc2ccccc21` [Carbamazepine], the “Effect on hyperthermia‐induced seizure response” value in the data set on Scn1a +/− mice [1] was “no effect”. Moreover, in the data set on Scn1a +/− mice [2], the “Mice surviving through P30” value worked out at 100%. In the data set with Dravet syndrome patients (Dravet syndrome cohort), the “Patients with significant worsening of seizures” value was “approximately 50%” and the “Patients with significant worsening of seizures (patients/patients trialed)” value is given as 16/32.
Take `CN1C(=O)CC(=O)N(c2ccccc2)c2cc(Cl)ccc21` [Clobazam]: in data set [3] (mouse, plasma, ip, 10 mg/kg), the AUC(0-inf) was 2.58 µg·h/mL and the half-life was 0.633 h. For the same molecule, the “Protection from hyperthermia‐induced GTCS” value (from here on “Protection”) in the data set on Scn1a +/− mice [1] (clobazam 0.1 mg/kg ip, P14–P16) is recorded as 37.5%. Besides, the “Protection” value with Scn1a +/− mice [1] (clobazam 1 mg/kg ip) is reported as 50%. Also, the “Protection” value in the data set on Scn1a +/− mice [1] (clobazam 10 mg/kg ip) is listed as “Complete protection”. Besides, the “Effect on spontaneous GTCS frequency” value in the data set with Scn1a +/− mice [4] is “did not result in a statistically significant change”. Further, in the data set on Scn1a +/− mice [5], the “Mice exhibiting spontaneous GTCS” value came to 25%. For the same molecule, in the data set with Dravet syndrome patients (Dravet syndrome cohort), the “Cases with seizure reduction” value is on record as approximately 75% and the “Patients with effective response with tolerable side effects” value (“Patients with effective response” for short) is recorded as more than 50%. Besides, the “Subchronic treatment plasma concentration” value in data set [6] is given as “BQL”.
For the molecule `Nc1nnc(-c2cccc(Cl)c2Cl)c(N)n1` [Lamotrigine], the “Mice that experienced a hyperthermia‐induced GTCS” value with Scn1a +/− mice [1] (lamotrigine 20 mg/kg ip, 12 mice, vehicle 10 of 12) is given as 12 mice. Also, in the data set with Scn1a +/− mice [1] (lamotrigine 20 mg/kg ip, vehicle C 41.8 ± 0.1), the “Threshold temperature for hyperthermia‐induced GTCS” value worked out at 40.5 ± 0.3 °C. Further, in the data set on Scn1a +/− mice [1], the “Effect on hyperthermia‐induced seizure response” value is recorded as “significantly worsened”. For the same molecule, the “Seizures that escalated to tonic hindlimb extension” value in the data set on Scn1a +/− mice [4] (naïve cohort, lamotrigine chow, untreated 33% (17/52)) is recorded as “None of the 155 seizures”. The “Effect on spontaneous GTCS frequency” value with Scn1a +/− mice [4] is “significantly worsened”. Besides, the “Survival through P42 (6‐week survival)” value with Scn1a +/− mice [2] (lamotrigine chow from P18, untreated 68% (15/22)) is reported as “completely prevented lethality”. Also, in the data set with Dravet syndrome patients (Dravet syndrome cohort), the “Patients with significant worsening of seizures” value was “approximately 50%” and the “Patients with significant worsening of seizures (patients/patients trialed)” value is listed as 25/50.
Turning to `CC(C)(C)C(O)/C=C/c1ccc2c(c1)OCO2` (stereo not shown) [Stiripentol], in data set [3] (mouse, plasma, ip, 100 mg/kg), the AUC(0-inf) was 210 µg·h/mL, the highest level (Cmax) was 46000 ng/mL, the half-life was 2.82 h and the tmax was 1.5 h. In addition, the “Effect on hyperthermia‐induced seizure response” value in the data set with Scn1a +/− mice [1] is “no effect”. The “Effect on hyperthermia seizure threshold temperature vs vehicle” value with Scn1a +/− mice [1] (stiripentol 100 mg/kg ip) is “increased threshold temperature”. Further, in the data set with Scn1a +/− mice [1] (stiripentol 300 mg/kg ip (3/13)), the “Protected from hyperthermia‐induced GTCS” value came out at 23%. In addition, in the data set on Dravet syndrome patients (Dravet syndrome cohort), the “Patients with effective response” value is reported as more than 50%.
Take `CC1(C)O[C@@H]2[C@@H](CO[C@@]3(COS(N)(=O)=O)OC(C)(C)O[C@@H]23)O1` [Topiramate]: in the data set on Scn1a +/− mice [1], the “Effect on hyperthermia‐induced seizure response” value is “no effect”. In addition, in the data set on Scn1a +/− mice [2], the “Mice surviving through P30” value stood at 100%. Further, the “Patients with effective response” value with Dravet syndrome patients (Dravet syndrome cohort) is “less than 45%”.
Take `CCC1(c2ccccc2)C(=O)NC(=O)NC1=O` [Phenobarbital]: the “Effect on spontaneous GTCS frequency” value with Scn1a +/− mice [4] is given as “did not result in a statistically significant change”. Moreover, the “Effectiveness in Dravet syndrome cohort” value with Dravet syndrome patients was “limited effectiveness”. Moreover, the concentration at 24 h in data set [6] (mouse, plasma, oral, 300 mg per kg of chow, Plasma level, hyperthermia‐primed mice, phenobarbital chow, 24 h post seizure induction, primed) is 17800 ± 3200 ng/mL.
With `NC(=O)N1c2ccccc2CC(=O)c2ccccc21` [oxcarbazepine], in the data set with Dravet syndrome patients (Dravet syndrome cohort), the “Patients with significant worsening of seizures” value is “approximately 50%” and the “Patients with significant worsening of seizures (patients/patients trialed)” value is on record as 28/50.
Take `O=C1CN=C(c2ccccc2Cl)c2cc([N+](=O)[O-])ccc2N1` [clonazepam]: the “Patients with effective response” value in the data set with Dravet syndrome patients (Dravet syndrome cohort) is “less than 45%”.
Consider `CCCC(CCC)C(=O)O` [Valproic Acid], for which the “Effect on hyperthermia‐induced seizure response” value in the data set with Scn1a +/− mice [1] was “no effect”. Also, the “Protection” value with Scn1a +/− mice [1] (valproic acid 100 mg/kg ip) came to 30%; in the data set with Scn1a +/− mice [1] (valproic acid 200 mg/kg ip), 50%; with Scn1a +/− mice [1] (valproic acid 300 mg/kg ip), 100%. For the same molecule, the “Effect on spontaneous GTCS frequency” value in the data set with Scn1a +/− mice [4] is given as “did not result in a statistically significant change”. The “Patients with effective response” value with Dravet syndrome patients (Dravet syndrome cohort) is reported as more than 50%.
For `O=C1CC(=O)N(c2ccccc2)c2cc(Cl)ccc2N1` [NCLB, N‐desmethylclobazam], in data set [3] (setting [7]), the Cmax in plasma is 3100 ng/mL and the tmax stood at 1.5 h. In addition, the “Subchronic treatment plasma concentration” value in data set [6] worked out at 0.6 ± 0.03 µg/mL.
For `NS(=O)(=O)Cc1noc2ccccc12` [Zonisamide], the “Effectiveness in Dravet syndrome cohort” value in the data set with Dravet syndrome patients is given as “limited effectiveness”.
As for `CC[C@@H](C(N)=O)N1CCCC1=O` [Levetiracetam], the “Effect on spontaneous GTCS frequency” value in the data set on Scn1a +/− mice [4] is “did not result in a statistically significant change”. Also, in the data set on Scn1a +/− mice [2], the “Mice surviving through P30” value was found to be 100%. The “Effectiveness in Dravet syndrome cohort” value with Dravet syndrome patients is given as “limited effectiveness”.
For `O=C1NC(=O)C(c2ccccc2)(c2ccccc2)N1` [Phenytoin], in the data set with Scn1a +/− mice [1], the “Effect on hyperthermia‐induced seizure response” value is recorded as “no effect”. Moreover, in the data set on Dravet syndrome patients (Dravet syndrome cohort), the “Patients with significant worsening of seizures” value is “approximately 50%” and the “Patients with significant worsening of seizures (patients/patients trialed)” value is given as 15/31.

A word on the AUC(0-inf): it is the area under the concentration-time curve extrapolated to infinity. A word on the half-life: it is the time in which the quantity being followed falls by half. A higher half-life goes with slow decline. One may read the Cmax as the maximum level reached in the sampled fluid or tissue.
